Experimental data as given in paper PMC9369335, “Tailoring the Structure of Cell Penetrating DNA and RNA Binding Nucleopeptides” (International Journal of Molecular Sciences, 2022).
Square brackets hold non-standard residues; d marks the D form. Peptide text beside a SMILES is read from it. * marks the point of attachment. FITC = O=C1OC2(c3ccc(O)cc3Oc3cc(O)ccc32)c2ccc(NC(=S)*)cc21; Acetyl(thymin-1-yl) = Cc1cn(CC(=O)*)c(=O)[nH]c1=O; Dab = NCC[C@H](N)C(=O)O; Ahx = NCCCCCC(=O)O

Test system: HT29, CCRF-CEM and Jurkat cells
Experiment: Cellular and nuclear uptake of FITC-labelled nucleopeptides by flow cytometry
Format: cell-based, human
Conditions: 10 µM, 3 h, 37 °C, comparison in words
Method: The promising results achieved with 32 and 33 in terms of DNA and RNA recognition and binding studies prompted us to investigate their capability to cross the cellular membrane and to distribute between cytoplasm and nucleus. Specifically, cell penetration experiments were carried out employing 34 and 35 (the FITC-labelled derivatives of 32 and 33, respectively) on three different cancer cell lines (Jurkat, HT29 and CEM). […]
The fluorescence of Fluorescein Isothiocyanate (FITC) (excitation 488 nm, emission 525 nm) was used to evaluate the intracellular and intranuclear nucleopeptides uptake using flow cytometry. […] To evaluate cellular uptake, the cell pellets were suspended in 500 µL of PBS and analyzed by flow cytometry. For nuclear uptake, the nuclei were extracted with PBS-Triton (0.5%) for 15 min at room temperature (RT), washed with PBS-Triton (0.1%), suspended in 500 µL of PBS and analyzed by FACS ARIA III flow cytometry (BD Bioscience, Mountain View, CA, USA) with DIVA software 8.01. […] The uptake was evaluated as mean fluorescence and was analyzed using FlowJo 10.7.1 software.

`Cc1cn(CC(=O)NCC[C@H](NC(=O)CCCCCNC(=S)Nc2ccc3c(c2)C(=O)OC32c3ccc(O)cc3Oc3cc(O)ccc32)C(=O)N[C@@H](CCCNC(=N)N)C(=O)N[C@@H](CCNC(=O)Cn2cc(C)c(=O)[nH]c2=O)C(=O)N[C@@H](CCCNC(=N)N)C(=O)N[C@@H](CCNC(=O)Cn2cc(C)c(=O)[nH]c2=O)C(=O)N[C@@H](CCCNC(=N)N)C(=O)N[C@@H](CCNC(=O)Cn2cc(C)c(=O)[nH]c2=O)C(=O)N[C@@H](CCCNC(=N)N)C(=O)N[C@@H](CCNC(=O)Cn2cc(C)c(=O)[nH]c2=O)C(=O)N[C@@H](CCCNC(=N)N)C(=O)N[C@@H](CCNC(=O)Cn2cc(C)c(=O)[nH]c2=O)C(=O)N[C@@H](CCCNC(=N)N)C(N)=O)c(=O)[nH]c1=O` [compound 34] ({FITC-Ahx}-[Dab](Acetyl(thymin-1-yl))R[Dab](Acetyl(thymin-1-yl))R[Dab](Acetyl(thymin-1-yl))R[Dab](Acetyl(thymin-1-yl))R[Dab](Acetyl(thymin-1-yl))R[Dab](Acetyl(thymin-1-yl))R-NH2) was tested, and the “concentration in cytoplasm (cellular uptake, mean fluorescence)” value (1 × 10^6 cells) was “significantly higher than 35” and the “concentration in nucleus (nuclear uptake, mean fluorescence)” value (nuclei extracted with PBS-Triton 0.5%) was “significantly higher than 35”.
